In patent US9988379B2, “GPR40 receptor agonist, methods of preparing the same, and pharmaceutical compositions containing the same as an active agent” (LG CHEM, LTD., priority 2012, dated 2018):

Target: T1, human GPR40 (Homo sapiens, UniProt O14842)
T1 construct: expressed in transfected cells; host or cells: CHO-K1
Experiment: Induction of Ca2+ (calcium flux assay) using human GPR40 expression cell line
Type: cell-based
Conditions: read-out: EC0.5
Summary of the method: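 CHO-K1 cells stably transfected with human GPR40, plated 24 h, loaded 1 h at 37° C with Calcium 5 dye in HBSS/HEPES pH 7.4. Intracellular calcium change after compound addition read on FlexStation; concentration–response of relative activity used to derive EC0.5.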

T1 sequence (O14842 whole entry): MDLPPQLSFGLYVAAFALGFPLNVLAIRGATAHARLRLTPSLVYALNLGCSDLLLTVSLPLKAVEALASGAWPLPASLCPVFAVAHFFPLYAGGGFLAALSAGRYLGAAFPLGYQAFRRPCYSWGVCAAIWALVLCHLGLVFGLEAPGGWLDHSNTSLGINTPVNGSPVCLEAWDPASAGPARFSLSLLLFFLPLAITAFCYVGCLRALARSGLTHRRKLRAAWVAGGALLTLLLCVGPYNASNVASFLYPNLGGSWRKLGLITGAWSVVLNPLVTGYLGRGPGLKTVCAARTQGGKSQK

Row | Compound | EC50 [µM]
1 | CC#C[C@@H](CC(=O)O)c1ccc(OCc2cccc3c(CCC)nn(C)c23)cc1 [Example 210, (S)-3-[4-(1-methyl-3-propyl-1H-indazol-7-ylmethoxy)-phenyl]-hex-4-ynoic acid] | 0.008
2 | CC#C[C@@H](CC(=O)O)c1ccc(OCc2ccc3c(CN4CC[C@H](F)C4)nn(CC(C)C)c3c2C)cc1 [Example 229, (S)-3-{4-[3-((S)-3-fluoro-pyrrolidin-1-ylmethyl)-1-isobutyl-7-methyl-1H-indazol-6-ylmethoxy]-phenyl}-hex-4-ynoic acid] | 0.035
3 | CC#C[C@@H](CC(=O)O)c1ccc(OCc2ccc3c(cnn3CCCOC)c2)cc1 [Example 176, (S)-3-{4-[1-(3-methoxy-propyl)-1H-indazol-5-ylmethoxy]-phenyl}-hex-4-ynoic acid] | 0.04
4 | O=C(O)C[C@@H](c1ccc(OCc2ccc3ccn(Cc4ccccc4)c3n2)cc1)c1ccon1 [Example 91, (S)-3-[4-(1-benzyl-1H-pyrrolo[2,3-b]pyridin-6-ylmethoxy)-phenyl]-3-isoxazol-3-yl-propanoic acid] | 0.03
5 | CC#C[C@@H](CC(=O)O)c1ccc(OCc2cccc3nn(Cc4ccccc4)cc23)cc1 [Example 47, (S)-3-[4-(2-benzyl-2H-indazol-4-ylmethoxy)-phenyl]-hex-4-ynoic acid] | 0.001 to 0.05
6 | O=C(O)CC(C1=NOCC1)c1ccc(OCc2ccc3cnn(Cc4ccccc4)c3c2)cc1 (stereo not shown) [Example 65, 3-[4-(1-benzyl-1H-indazol-6-ylmethoxy)-phenyl]-3-(4,5-dihydro-isoxazol-3-yl)-propanoic acid] | 0.05
7 | CC(C)n1ncc2ccc(COc3ccc4c(c3)OCC4CC(=O)O)cc21 (stereo not shown) [Example 100, [6-(1-isopropyl-1H-indazol-6-ylmethoxy)-2,3-dihydro-benzofuran-3-yl]-acetic acid] | 0.6
8 | CC#C[C@@H](CC(=O)O)c1ccc(OCc2ccc3c(cnn3CC3CC3)c2)cc1 [Example 165, (S)-3-[4-(1-cyclopropylmethyl-1H-indazol-5-ylmethoxy)-phenyl]-hex-4-ynoic acid] | 0.001 to 0.05
9 | CC#C[C@@H](CC(=O)O)c1ccc(OCc2cccc3c2cnn3CC(C)C)cc1 [Example 184, (S)-3-[4-(1-isobutyl-1H-indazol-4-ylmethoxy)-phenyl]-hex-4-ynoic acid] | 0.001 to 0.05
10 | Cc1c(COc2ccc(CCC(=O)O)c(F)c2)ccc2ccn(Cc3ccccc3)c12 [Example 55, 3-[4-(1-benzyl-7-methyl-1H-indol-6-ylmethoxy)-2-fluoro-phenyl]-propanoic acid] | 0.001 to 0.05
11 | O=C(O)CC1CCOc2cc(OCc3ccc4c(cnn4Cc4ccccc4)c3)ccc21 (stereo not shown) [Example 120, [7-(1-benzyl-1H-indazol-5-ylmethoxy)-chroman-4-yl]-acetic acid] | 0.04
12 | CC#C[C@@H](CC(=O)O)c1ccc(OCc2ccc3cn(Cc4ncccn4)nc3c2)cc1 [Example 69, (S)-3-[4-(2-pyrimidin-2-ylmethyl-2H-indazol-6-ylmethoxy]-phenyl}-hex-4-ynoic acid] | ≥ 0.5
13 | CC(CC(=O)O)c1ccc(OCc2ccc3c(cnn3Cc3ccccc3)c2)cc1 (stereo not shown) [Example 158, 3-[4-(1-benzyl-1H-indazol-5-ylmethoxy)-phenyl]-butyric acid] | 0.05
14 | O=C(O)CC1CCCc2cc(OCc3ccc4cnn(Cc5ccccc5)c4c3)ccc21 (stereo not shown) [Example 110, [6-(1-benzyl-1H-indazol-6-ylmethoxy)-1,2,3,4-tetrahydro-naphthalen-1-yl]-acetic acid] | 0.2
15 | CC#C[C@@H](CC(=O)O)c1ccc(OCc2ccc3c(cnn3CCS(C)(=O)=O)c2)cc1 [Example 174, (S)-3-{4-[1-(2-methanesulfonyl-ethyl)-1H-indazol-5-ylmethoxy]-phenyl}-hex-4-ynoic acid] | ≥ 0.5
16 | CC#C[C@@H](CC(=O)O)c1ccc(OCc2ccc3c(c2)c(C)nn3CC(C)C)cc1 [Example 170, (S)-3-[4-(1-isobutyl-3-methyl-1H-indazol-5-ylmethoxy)-phenyl]-hex-4-ynoic acid] | 0.001 to 0.05
17 | CC#C[C@@H](CC(=O)O)c1ccc(OCc2ccc3c(cnn3Cc3ccccn3)c2)cc1 [Example 141, (S)-3-[4-(1-pyridine-2-ylmethyl-1H-indazol-5-ylmethoxy)-phenyl]-hex-4-ynoic acid] | 0.001 to 0.05
18 | CC#C[C@@H](CC(=O)O)c1ccc(OCc2ccc3cnn(Cc4cnn(C)c4)c3c2)cc1 [Example 82, (S)-3-{4-[1-(1-methyl-1H-pyrazol-4-ylmethyl)-1H-indazol-6-ylmethoxy]-phenyl}-hex-4-ynoic acid] | 0.05 to 0.5
19 | CC#C[C@@H](CC(=O)O)c1ccc(OCc2ccc3c(c2)n(C)c(=O)n3Cc2ccccc2)cc1 [Example 161, (S)-3-[4-(1-benzyl-3-methyl-2-oxo-2,3-dihydro-1H-benzoimidazol-5-ylmethoxy)-phenyl]-hex-4-ynoic acid] | 0.005
20 | CC#C[C@@H](CC(=O)O)c1ccc(OCc2cc3c(cnn3CC(C)C)cc2F)cc1 [Example 150, (S)-3-[4-(5-fluoro-1-isobutyl-1H-indazol-6-ylmethoxy)-phenyl]-hex-4-ynoic acid] | 0.003

Row | Compound | EC50 [µM]
21 | CC#C[C@@H](CC(=O)O)c1ccc(OCc2cccc3c2c(Cl)nn3CC(C)C)cc1 [Example 192, (S)-3-[4-(3-chloro-1-isobutyl-1H-indazol-4-ylmethoxy)-phenyl]-hex-4-ynoic acid] | 0.03
22 | CC#C[C@@H](CC(=O)O)c1ccc(OCc2cccc3c2c(F)nn3C(C)C)cc1 [Example 194, (S)-3-[4-(3-fluoro-1-isopropyl-1H-indazol-4-ylmethoxy)-phenyl]-hex-4-ynoic acid] | 0.001 to 0.05
23 | O=C(O)CC1CCOc2cc(OCc3ccc4c(cnn4Cc4ccccn4)c3)ccc21 (stereo not shown) [Example 142, [7-(1-pyridine-2-ylmethyl-1H-indazol-5-ylmethoxy)-chroman-4-yl]-acetic acid] | ≥ 0.5
24 | CC#C[C@@H](CC(=O)O)c1ccc(OCc2ccc3ccn(Cc4cnc(C)cn4)c3c2C)cc1 [Example 44, (S)-3-{4-[7-methyl-1-(5-methyl-pyrazin-2-ylmethyl)-1H-indol-6-ylmethoxy]-phenyl}-hex-4-ynoic acid] | 0.001 to 0.05
25 | CC#C[C@@H](CC(=O)O)c1ccc(OCc2ccc3c(cnn3CCCS(C)(=O)=O)c2)cc1 [Example 152, (S)-3-{4-[1-(3-methanesulfonyl-propyl)-1H-indazol-5-ylmethoxy]-phenyl}-hex-4-ynoic acid] | ≥ 0.5
26 | CC#C[C@@H](CC(=O)O)c1ccc(OCc2cccc3c(C(C)C)nn(C)c23)cc1 [Example 209, (S)-3-[4-(3-isopropyl-1-methyl-1H-indazol-7-ylmethoxy)-phenyl]-hex-4-ynoic acid] | 0.001 to 0.05
27 | CC#C[C@@H](CC(=O)O)c1ccc(OCc2ccc3ccn(Cc4cnn(C)c4)c3c2C)cc1 [Example 63, (S)-3-{4-[7-methyl-1-(1-methyl-1H-pyrazol-4-ylmethyl)-1H-indol-6-ylmethoxy)-phenyl]-hex-4-ynoic acid] | 0.001 to 0.05
28 | CC#C[C@@H](CC(=O)O)c1ccc(OCc2ccc3nn(CCOCC)cc3c2)cc1 [Example 160, (S)-3-{4-[2-(2-ethoxy-ethyl)-2H-indazol-5-ylmethoxy]-phenyl}-hex-4-ynoic acid] | 0.05 to 0.5
29 | O=C(O)C[C@@H](c1ccc(OCc2ccc3cn[nH]c3c2)cc1)c1ccon1 [Example 102, (S)-3-[4-(1H-indazol-6-ylmethoxy)-phenyl]-3-isoxazol-3-yl-propanoic acid] | 0.4
30 | CC#C[C@@H](CC(=O)O)c1ccc(OCc2ccc3c(cnn3CC3CCOC3)c2)cc1 (stereo partly drawn) [Example 153, (S)-3-{4-[1-(tetrahydrofuran-3-ylmethyl)-1H-indazol-5-ylmethoxy]-phenyl}-hex-4-ynoic acid] | 0.001 to 0.05
31 | CC#C[C@@H](CC(=O)O)c1ccc(OCc2ccc(C)c3c2c(F)nn3CC(C)C)cc1 [Example 213, (S)-3-[4-(3-fluoro-1-isobutyl-7-methyl-1H-indazol-4-ylmethoxy)-phenyl]-hex-4-ynoic acid] | 0.001 to 0.05
32 | CC#C[C@@H](CC(=O)O)c1ccc(OCc2cc(C)c3c(cnn3CC3CCCC3)c2)cc1 [Example 169, (S)-3-[4-(1-cyclopentylmethyl-7-methyl-1H-indazol-5-ylmethoxy)-phenyl]-hex-4-ynoic acid] | 0.001 to 0.05
33 | CC(C)Cn1ncc2ccc(COc3ccc([C@H](CC(=O)O)c4ccon4)cc3)cc21 [Example 87, (S)-3-[4-(1-isobutyl-1H-indazol-6-ylmethoxy)-phenyl]-3-isoxazol-3-yl-propanoic acid] | 0.01
34 | O=C(O)CCc1ccc(OCc2ccc3ccn(-c4ccsc4)c3c2)cc1 [Example 13, 3-[4-(1-thiophen-3-yl-1H-indol-6-ylmethoxy)-phenyl]-propanoic acid] | 0.02
35 | Cn1cc(Cc2ccccc2)c2cc(COc3ccc(CCC(=O)O)cc3)ccc21 [Example 20, 3-[4-(3-benzyl-1-methyl-1H-indol-5-ylmethoxy)-phenyl]-propanoic acid] | 0.07
36 | CC#C[C@@H](CC(=O)O)c1ccc(OCc2cnc3c(ccn3CC(C)C)c2)cc1 [Example 144, (S)-3-[4-(1-isobutyl-1H-pyrrolo[2,3-b]pyridin-5-ylmethoxy)-phenyl]-hex-4-ynoic acid] | 0.001 to 0.05
37 | CC#C[C@@H](CC(=O)O)c1ccc(OCc2ccc3cnn(Cc4ccccc4)c3c2)cc1 [Example 59, (S)-3-[4-(1-benzyl-1H-indazol-6-ylmethoxy)-phenyl]-hex-4-ynoic acid] | 0.001 to 0.05
38 | CC#C[C@@H](CC(=O)O)c1ccc(OCc2ccc3ccn(Cc4ccc(F)cc4)c3c2C)cc1 [Example 50, (S)-3-{4-[1-(4-fluoro-benzyl)-7-methyl-1H-indol-6-ylmethoxy]-phenyl}-hex-4-ynoic acid] | 0.05 to 0.5
39 | O=C(O)CC1COc2cc(OCc3ccc4c(Cl)cn(Cc5ccccc5)c4c3)ccc21 (stereo not shown) [Example 12, [6-(1-benzyl-3-chloro-1H-indol-6-ylmethoxy)-2,3-dihydro-benzofuran-3-yl]-acetic acid] | 0.16
40 | CC#C[C@@H](CC(=O)O)c1ccc(OCc2cc3c(ccn3Cc3ccccc3)cc2F)cc1 [Example 41, (S)-3-[4-(1-benzyl-5-fluoro-1H-indol-6-ylmethoxy)-phenyl]-hex-4-ynoic acid] | 0.001 to 0.05
